# Legend:
# Assay type in all cases: functional
# Staphylococcus aureus [1] = assay: Antibacterial activity against Staphylococcus aureus ATCC 25923 assessed as inhibition of bacterial growth
# Enterococcus faecalis = assay: Antibacterial activity against Enterococcus faecalis assessed as inhibition of bacterial growth
# Pseudomonas aeruginosa [2] = assay: Antibacterial activity against Pseudomonas aeruginosa assessed as inhibition of bacterial growth
# Staphylococcus aureus [3] = assay: Antibacterial activity against Staphylococcus aureus assessed as inhibition of bacterial growth
# Escherichia coli [4] = assay: Antibacterial activity against Escherichia coli ATCC 25922 assessed as inhibition of bacterial growth
# Acinetobacter baumannii = assay: Antibacterial activity against Acinetobacter baumannii assessed as inhibition of bacterial growth
# Staphylococcus aureus [5] = assay: Antibacterial activity against Staphylococcus aureus ATCC 29213 assessed as inhibition of bacterial growth
# Klebsiella pneumoniae = assay: Antibacterial activity against Klebsiella pneumoniae assessed as inhibition of bacterial growth
# Escherichia coli [6] = assay: Antibacterial activity against Escherichia coli assessed as inhibition of bacterial growth
# Pseudomonas aeruginosa [7] = assay: Antibacterial activity against Pseudomonas aeruginosa ATCC 27853 assessed as inhibition of bacterial growth
# Staphylococcus aureus [8] = assay: Antibacterial activity against methicillin resistant Staphylococcus aureus N315 assessed as inhibition of bacterial growth
SMILES,MIC (Staphylococcus aureus [1]),MIC (Enterococcus faecalis),MIC (Pseudomonas aeruginosa [2]),MIC (Staphylococcus aureus [3]),MIC (Escherichia coli [4]),MIC (Acinetobacter baumannii),MIC (Staphylococcus aureus [5]),MIC (Klebsiella pneumoniae),MIC (Escherichia coli [6]),MIC (Pseudomonas aeruginosa [7]),MIC (Staphylococcus aureus [8])
CCCCc1nc(Cl)c(C(Nc2ccc3c(C)cc(=O)oc3c2)P(=O)(OCC)OCC)[nH]1 (stereo unspecified),16 µg/mL,64 µg/mL,64 µg/mL,32 µg/mL,64 µg/mL,128 µg/mL,256 µg/mL,128 µg/mL,32 µg/mL,256 µg/mL,128 µg/mL
CCOP(=O)(OCC)C(Nc1ccc2c(C)cc(=O)oc2c1)c1ccc(O)c([N+](=O)[O-])c1 (stereo unspecified),64 µg/mL,64 µg/mL,32 µg/mL,32 µg/mL,128 µg/mL,64 µg/mL,32 µg/mL,128 µg/mL,64 µg/mL,128 µg/mL,256 µg/mL
CCOP(=O)(OCC)C(Nc1ccc2c(C)cc(=O)oc2c1)c1ccc(C#N)cc1 (stereo unspecified),256 µg/mL,64 µg/mL,64 µg/mL,128 µg/mL,128 µg/mL,128 µg/mL,64 µg/mL,128 µg/mL,128 µg/mL,128 µg/mL,128 µg/mL
CCOP(=O)(OCC)C(Nc1ccc2c(CCl)cc(=O)oc2c1)c1cccc(O)c1 (stereo unspecified),16 µg/mL,32 µg/mL,128 µg/mL,16 µg/mL,8 µg/mL,64 µg/mL,64 µg/mL,128 µg/mL,64 µg/mL,32 µg/mL,64 µg/mL
CCOP(=O)(OCC)C(Nc1cc2ccccc2oc1=O)c1cccc(O)c1 (stereo unspecified),8 µg/mL,16 µg/mL,32 µg/mL,8 µg/mL,32 µg/mL,16 µg/mL,32 µg/mL,128 µg/mL,64 µg/mL,4 µg/mL,32 µg/mL
CCCCc1nc(Cl)c(C(Nc2ccc3c(C)cc(=O)oc3c2)P(=O)(OCC)OCC)n1Cc1ccccc1F (stereo unspecified),64 µg/mL,128 µg/mL,256 µg/mL,128 µg/mL,256 µg/mL,32 µg/mL,32 µg/mL,128 µg/mL,32 µg/mL,64 µg/mL,64 µg/mL
CCOP(=O)(OCC)C(Nc1ccc2c(C)cc(=O)oc2c1)c1cc(O)c2c(c1)C(=O)c1cccc(O)c1C2=O (stereo unspecified),4 µg/mL,32 µg/mL,8 µg/mL,8 µg/mL,4 µg/mL,16 µg/mL,8 µg/mL,32 µg/mL,8 µg/mL,8 µg/mL,4 µg/mL
CCOP(=O)(OCC)C(Nc1ccc2c(C)cc(=O)oc2c1)c1nccs1 (stereo unspecified),128 µg/mL,128 µg/mL,64 µg/mL,16 µg/mL,64 µg/mL,32 µg/mL,32 µg/mL,256 µg/mL,128 µg/mL,8 µg/mL,64 µg/mL
CCOP(=O)(OCC)C(Nc1ccc2c(C)cc(=O)oc2c1)c1ccc(O)c(Br)c1 (stereo unspecified),128 µg/mL,128 µg/mL,32 µg/mL,64 µg/mL,128 µg/mL,128 µg/mL,128 µg/mL,128 µg/mL,64 µg/mL,64 µg/mL,256 µg/mL
CCOP(=O)(OCC)C(Nc1ccc2c(C)cc(=O)oc2c1)c1ccc(O)c(OC)c1 (stereo unspecified),64 µg/mL,16 µg/mL,256 µg/mL,64 µg/mL,64 µg/mL,128 µg/mL,128 µg/mL,256 µg/mL,128 µg/mL,64 µg/mL,128 µg/mL
CCOP(=O)(OCC)C(Nc1ccc2c(C)cc(=O)oc2c1)c1ccc(Cl)cc1 (stereo unspecified),4 µg/mL,64 µg/mL,16 µg/mL,256 µg/mL,4 µg/mL,64 µg/mL,128 µg/mL,64 µg/mL,128 µg/mL,8 µg/mL,128 µg/mL
CCCCc1nc(Cl)c(C(Nc2ccc3c(C)cc(=O)oc3c2)P(=O)(OCC)OCC)n1Cc1ccc(Cl)cc1Cl (stereo unspecified),32 µg/mL,128 µg/mL,64 µg/mL,64 µg/mL,128 µg/mL,128 µg/mL,128 µg/mL,128 µg/mL,64 µg/mL,256 µg/mL,128 µg/mL
CCOP(=O)(OCC)C(Nc1ccc2c(C(F)(F)F)cc(=O)oc2c1)c1cccc(O)c1 (stereo unspecified),8 µg/mL,16 µg/mL,32 µg/mL,16 µg/mL,16 µg/mL,128 µg/mL,64 µg/mL,32 µg/mL,256 µg/mL,16 µg/mL,32 µg/mL
CCOP(=O)(OCC)C(Nc1ccc2c(C)cc(=O)oc2c1)c1ccccc1F (stereo unspecified),64 µg/mL,64 µg/mL,256 µg/mL,16 µg/mL,64 µg/mL,64 µg/mL,64 µg/mL,128 µg/mL,128 µg/mL,32 µg/mL,64 µg/mL
CCOP(=O)(OCC)C(Nc1ccc2c(C)c(Cl)c(=O)oc2c1)c1cccc(O)c1 (stereo unspecified),32 µg/mL,64 µg/mL,64 µg/mL,16 µg/mL,16 µg/mL,32 µg/mL,32 µg/mL,128 µg/mL,128 µg/mL,128 µg/mL,32 µg/mL
CCOP(=O)(OCC)C(Nc1ccc2c(C)cc(=O)oc2c1)c1ccc(C(=O)O)cc1 (stereo unspecified),128 µg/mL,128 µg/mL,16 µg/mL,64 µg/mL,256 µg/mL,128 µg/mL,64 µg/mL,64 µg/mL,32 µg/mL,64 µg/mL,256 µg/mL
CCCCc1nc(Cl)c(C(Nc2ccc3c(C)cc(=O)oc3c2)P(=O)(OCC)OCC)n1Cc1ccc(F)cc1F (stereo unspecified),128 µg/mL,128 µg/mL,256 µg/mL,32 µg/mL,128 µg/mL,64 µg/mL,64 µg/mL,128 µg/mL,128 µg/mL,128 µg/mL,64 µg/mL
CCCCc1nc(Cl)c(C(Nc2ccc3c(C)cc(=O)oc3c2)P(=O)(OCC)OCC)n1CO (stereo unspecified),16 µg/mL,128 µg/mL,256 µg/mL,2 µg/mL,16 µg/mL,64 µg/mL,128 µg/mL,16 µg/mL,128 µg/mL,32 µg/mL,2 µg/mL
CCOP(=O)(OCC)C(Nc1ccc2c(C)cc(=O)oc2c1)c1ccc(C(F)(F)F)cc1 (stereo unspecified),256 µg/mL,128 µg/mL,64 µg/mL,256 µg/mL,64 µg/mL,128 µg/mL,256 µg/mL,128 µg/mL,128 µg/mL,64 µg/mL,256 µg/mL
CCOP(=O)(OCC)C(Nc1ccc2c(C)cc(=O)oc2c1)c1cccc(Cl)c1O (stereo unspecified),64 µg/mL,128 µg/mL,16 µg/mL,32 µg/mL,64 µg/mL,128 µg/mL,128 µg/mL,128 µg/mL,128 µg/mL,64 µg/mL,64 µg/mL
CCOP(=O)(OCC)C(Nc1ccc2c(C)cc(=O)oc2c1)c1ccc(Cl)cc1Cl (stereo unspecified),128 µg/mL,64 µg/mL,128 µg/mL,128 µg/mL,128 µg/mL,64 µg/mL,128 µg/mL,64 µg/mL,32 µg/mL,64 µg/mL,128 µg/mL

# From ChEMBL document CHEMBL5385845, “Novel coumarin aminophosphonates as potential multitargeting antibacterial agents against Staphylococcus aureus” (Eur J Med Chem, 2023)
